ChEMBL document CHEMBL1201862, “PubChem BioAssay data set” (2004)
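Following 48 hours of exposure in 96-well plates, responses at five concentrations were used to interpolate endpoints linearly. GI50 marks 50% less growth.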 Calls of active or inactive are those of the source. No stated cut-off is given here; in the data, active = GI50 up to about 1.1 µM and inactive = higher.

Columns and labels:
Assay in all cases: DTP human tumour cell line panel, 48 h
SK-MEL-28 = system: SK-MEL-28
COLO 205 = system: COLO 205
HOP-92 = system: HOP-92
HOP-62 = system: HOP-62
SK-OV-3 = system: SK-OV-3
HL-60 = system: HL-60
HCT-15 = system: HCT-15
OVCAR-8 = system: OVCAR-8
RPMI-8226 = system: RPMI-8226
K562 = system: K562
U-251 = system: U-251
SF-268 = system: SF-268
SR = system: SR
A549 = system: A549
Malme-3M = system: Malme-3M
UO-31 = system: UO-31
CCRF-CEM = system: CCRF-CEM
CAKI-1 = system: CAKI-1
SF-295 = system: SF-295
OVCAR-5 = system: OVCAR-5

| Structure (SMILES) | GI50 (SK-MEL-28) | GI50 (COLO 205) | GI50 (HOP-92) | GI50 (HOP-62) | GI50 (SK-OV-3) | GI50 (HL-60) | GI50 (HCT-15) [µM] | GI50 (OVCAR-8) | GI50 (RPMI-8226) | GI50 (K562) | GI50 (U-251) | GI50 (SF-268) | GI50 (SR) | GI50 (A549) | GI50 (Malme-3M) | GI50 (UO-31) | GI50 (CCRF-CEM) | GI50 (CAKI-1) | GI50 (SF-295) | GI50 (OVCAR-5) |
| --- | --- | --- | --- | --- | --- | --- | --- | --- | --- | --- | --- | --- | --- | --- | --- | --- | --- | --- | --- | --- |
| Cc1ccc(-c2nc3cc([N+](=O)[O-])ccc3[nH]2)cc1 | > 100 µM (inactive) | 72.9 µM (inactive) | > 100 µM (inactive) | > 100 µM (inactive) | > 100 µM (inactive) | 45.3 µM (inactive) | 52.8 | 93.1 µM (inactive) | 43.1 µM (inactive) | 59.3 µM (inactive) | > 100 µM (inactive) | > 100 µM (inactive) | 70.8 µM (inactive) | 54.1 µM (inactive) | > 100 µM (inactive) | 57.8 µM (inactive) | 39.6 µM (inactive) | 38 µM (inactive) | 63 µM (inactive) | – |
| CCCCC/N=C/c1c(O)c(O)c(C(C)C)c2cc(C)c(-c3c(C)cc4c(C(C)C)c(O)c(O)c(/C=N/CCCCC)c4c3O)c(O)c12 | 6.19 µM (inactive) | 2.75 µM (inactive) | 3.73 µM (inactive) | 15.3 µM (inactive) | 7.06 µM (inactive) | 3.94 µM (inactive) | 5.85 | 7.4 µM (inactive) | 8.26 µM (inactive) | 4.25 µM (inactive) | 3.06 µM (inactive) | 6.5 µM (inactive) | 4.24 µM (inactive) | 5.58 µM (inactive) | 12.7 µM (inactive) | 7.13 µM (inactive) | 25.2 µM (inactive) | 18 µM (inactive) | – | 19 µM (inactive) |
| CN(C)c1ccc2nc3c(C(=O)O)cc(O)c(O)c3[o+]c2c1 | 43 µM (inactive) | 24.7 µM (inactive) | 67 µM (inactive) | 52.8 µM (inactive) | 25 µM (inactive) | 22.3 µM (inactive) | 37.5 | 41 µM (inactive) | 18.8 µM (inactive) | 22.4 µM (inactive) | 29.7 µM (inactive) | 41.5 µM (inactive) | 17.5 µM (inactive) | > 100 µM (inactive) | 6.49 µM (inactive) | 28.6 µM (inactive) | 10.5 µM (inactive) | 52.8 µM (inactive) | > 100 µM (inactive) | 65.3 µM (inactive) |
| O=P1(Oc2ccccc2)N=P(c2ccccc2)(c2ccccc2)C=C(c2ccc(Cl)cc2)N1 (centres undefined) | – | 5.15 µM (inactive) | 9.18 µM (inactive) | 16.4 µM (inactive) | 13.2 µM (inactive) | 4.86 µM (inactive) | 9.84 | 14.4 µM (inactive) | 3.03 µM (inactive) | 5.43 µM (inactive) | 5.51 µM (inactive) | 11.6 µM (inactive) | 3.6 µM (inactive) | 3.97 µM (inactive) | 15.5 µM (inactive) | 12 µM (inactive) | 9.38 µM (inactive) | 9.66 µM (inactive) | 6.92 µM (inactive) | 13.1 µM (inactive) |
| COc1ccc(N2C(=O)CSC2c2cc(OC)c(OC)c(OC)c2)cc1 (centres undefined) | 33.4 µM (inactive) | 25.4 µM (inactive) | 54.6 µM (inactive) | – | 24.2 µM (inactive) | 17.5 µM (inactive) | 16 | 29.9 µM (inactive) | 27.5 µM (inactive) | 11.9 µM (inactive) | 18.9 µM (inactive) | 31.8 µM (inactive) | 5.41 µM (inactive) | 25.5 µM (inactive) | 23.7 µM (inactive) | 11.8 µM (inactive) | 7.23 µM (inactive) | 25 µM (inactive) | 22.6 µM (inactive) | 22.3 µM (inactive) |
| C=CCn1c(=O)c2ccccc2[n+]2c(-c3cccc([N+](=O)[O-])c3)csc12 | 66.7 µM (inactive) | 24.8 µM (inactive) | 56.2 µM (inactive) | 76.7 µM (inactive) | 68.1 µM (inactive) | 25.9 µM (inactive) | – | 34.8 µM (inactive) | 30.7 µM (inactive) | 28.4 µM (inactive) | 77.4 µM (inactive) | 48.9 µM (inactive) | 17 µM (inactive) | 42.2 µM (inactive) | > 100 µM (inactive) | 28.6 µM (inactive) | 27.5 µM (inactive) | 97.3 µM (inactive) | 53.1 µM (inactive) | > 100 µM (inactive) |
| Cc1nsc2cc(Cl)n(C)c(=O)c12 | > 100 µM (inactive) | > 100 µM (inactive) | 59.7 µM (inactive) | > 100 µM (inactive) | > 100 µM (inactive) | > 100 µM (inactive) | > 100 | > 100 µM (inactive) | > 100 µM (inactive) | > 100 µM (inactive) | > 100 µM (inactive) | > 100 µM (inactive) | > 100 µM (inactive) | > 100 µM (inactive) | > 100 µM (inactive) | > 100 µM (inactive) | > 100 µM (inactive) | 40.4 µM (inactive) | – | > 100 µM (inactive) |
| COc1ccc(/C=C(/C#N)C(N)=O)cc1OC | > 100 µM (inactive) | > 100 µM (inactive) | > 100 µM (inactive) | > 100 µM (inactive) | > 100 µM (inactive) | > 100 µM (inactive) | > 100 | > 100 µM (inactive) | > 100 µM (inactive) | > 100 µM (inactive) | > 100 µM (inactive) | > 100 µM (inactive) | > 100 µM (inactive) | > 100 µM (inactive) | > 100 µM (inactive) | – | 42.1 µM (inactive) | > 100 µM (inactive) | > 100 µM (inactive) | > 100 µM (inactive) |
| CC(C)(C)c1cc2c3c(c1)c(=O)c1cccc4c(O)c5cccc(c2=O)c5c-3c41 | 10 µM (inactive) | > 100 µM (inactive) | 36.6 µM (inactive) | 47 µM (inactive) | > 100 µM (inactive) | 58.5 µM (inactive) | 48.5 | > 100 µM (inactive) | – | 38.5 µM (inactive) | 57.7 µM (inactive) | > 100 µM (inactive) | 15.3 µM (inactive) | > 100 µM (inactive) | > 100 µM (inactive) | > 100 µM (inactive) | 45.1 µM (inactive) | > 100 µM (inactive) | 60.1 µM (inactive) | 92.5 µM (inactive) |
| O=c1/c(=C/c2ccccc2[N+](=O)[O-])sc2nnc(-c3ccco3)n12 | 21.8 µM (inactive) | 30.4 µM (inactive) | > 100 µM (inactive) | 19.3 µM (inactive) | 47.4 µM (inactive) | 24.8 µM (inactive) | 28.2 | 17 µM (inactive) | – | 50.9 µM (inactive) | 21.2 µM (inactive) | 20.1 µM (inactive) | 32.3 µM (inactive) | 19.8 µM (inactive) | 23 µM (inactive) | 30.5 µM (inactive) | 23.1 µM (inactive) | 39.7 µM (inactive) | 23.6 µM (inactive) | 50.2 µM (inactive) |
| COc1nc(C(=O)O)c(Cl)c(OC)c1Cl | > 100 µM (inactive) | > 100 µM (inactive) | > 100 µM (inactive) | > 100 µM (inactive) | > 100 µM (inactive) | > 100 µM (inactive) | – | > 100 µM (inactive) | > 100 µM (inactive) | > 10 µM (inactive) | – | > 100 µM (inactive) | > 100 µM (inactive) | > 100 µM (inactive) | > 100 µM (inactive) | > 100 µM (inactive) | > 100 µM (inactive) | > 100 µM (inactive) | > 100 µM (inactive) | > 100 µM (inactive) |
| CNC(=S)N1CCN(C(C)=O)C1=S | 29.2 µM (inactive) | 97.5 µM (inactive) | 82.2 µM (inactive) | 70.5 µM (inactive) | 66.8 µM (inactive) | 47.8 µM (inactive) | 34.4 | 92.5 µM (inactive) | – | 54.2 µM (inactive) | 4.02 µM (inactive) | 54.8 µM (inactive) | 23.7 µM (inactive) | 38.8 µM (inactive) | 12.7 µM (inactive) | 50.7 µM (inactive) | 46.5 µM (inactive) | 50 µM (inactive) | 25.4 µM (inactive) | > 100 µM (inactive) |
| Cn1c2ccccc2c(=O)c2c(O)cc3c(c21)C=CC1(CCCC1)O3 | > 100 µM (inactive) | > 100 µM (inactive) | 25.7 µM (inactive) | 85.3 µM (inactive) | > 100 µM (inactive) | > 100 µM (inactive) | > 100 | > 100 µM (inactive) | > 100 µM (inactive) | 3.51 µM (inactive) | > 100 µM (inactive) | > 100 µM (inactive) | 37.3 µM (inactive) | > 100 µM (inactive) | > 100 µM (inactive) | – | > 100 µM (inactive) | > 100 µM (inactive) | 19 µM (inactive) | 33.7 µM (inactive) |
| O=C1N=C(S)NNC12c1ccccc1-c1ccccc12 | > 10 µM (inactive) | > 10 µM (inactive) | > 10 µM (inactive) | > 10 µM (inactive) | > 10 µM (inactive) | > 10 µM (inactive) | > 10 | > 10 µM (inactive) | > 10 µM (inactive) | > 10 µM (inactive) | > 10 µM (inactive) | > 10 µM (inactive) | > 10 µM (inactive) | > 10 µM (inactive) | > 10 µM (inactive) | 4.81 µM (inactive) | > 10 µM (inactive) | > 10 µM (inactive) | – | – |
| COc1cc(C2c3cc4c(cc3OC(NN)C2C)OCO4)cc(OC)c1OC (centres undefined) | 50.8 µM (inactive) | 0.575 µM (active) | 2.04 µM (inactive) | 0.462 µM (active) | 1.38 µM (inactive) | 0.323 µM (active) | 0.406 | 1.93 µM (inactive) | 0.289 µM (active) | 0.333 µM (active) | 0.403 µM (active) | 2.5 µM (inactive) | 0.287 µM (active) | 1.58 µM (inactive) | 0.34 µM (active) | 6.85 µM (inactive) | 0.405 µM (active) | 3.36 µM (inactive) | 0.406 µM (active) | – |
